Laboratory results as given in patent US10918645B2 (LIFEARC, priority 2016, dated 2021).

What was measured:
Format in all cases: biochemical
Conditions in all cases: 1 μM inhibitor concentration
[1] = molecular target: IKKb (Homo sapiens (Human), UniProt O14920); test: IKKb kinase selectivity assay
Protocol: 5-20 mU of IKKb (diluted in 50 mM Tris (pH 7.5), 0.1 mM EGTA, 1 mg/ml BSA, 0.1%, b-Mercaptoethanol) is assayed against substrate peptide ([…]) in a final volume of […] containing 50 mM Tris (pH 7.5), 0.1 mM EGTA, 0.1%, b-Mercaptoethanol, 300 μM substrate peptide, 10 mM magnesium acetate and 0.005 mM [33P-g-ATP](500-1000 cpm/pmole) and incubated for 30 mins at room temperature. Assays are stopped by addition of 5 μl of 0.5M (3%) orthophosphoric acid. Assays are harvested onto P81 Unifilter plates using a wash buffer of 50 mM orthophosphoric acid.

[2] = molecular target: PLK1 (Homo sapiens (Human), UniProt P53350); test: PLK1 kinase selectivity assay
Sequence of PLK1 (P53350 whole entry, species assumed): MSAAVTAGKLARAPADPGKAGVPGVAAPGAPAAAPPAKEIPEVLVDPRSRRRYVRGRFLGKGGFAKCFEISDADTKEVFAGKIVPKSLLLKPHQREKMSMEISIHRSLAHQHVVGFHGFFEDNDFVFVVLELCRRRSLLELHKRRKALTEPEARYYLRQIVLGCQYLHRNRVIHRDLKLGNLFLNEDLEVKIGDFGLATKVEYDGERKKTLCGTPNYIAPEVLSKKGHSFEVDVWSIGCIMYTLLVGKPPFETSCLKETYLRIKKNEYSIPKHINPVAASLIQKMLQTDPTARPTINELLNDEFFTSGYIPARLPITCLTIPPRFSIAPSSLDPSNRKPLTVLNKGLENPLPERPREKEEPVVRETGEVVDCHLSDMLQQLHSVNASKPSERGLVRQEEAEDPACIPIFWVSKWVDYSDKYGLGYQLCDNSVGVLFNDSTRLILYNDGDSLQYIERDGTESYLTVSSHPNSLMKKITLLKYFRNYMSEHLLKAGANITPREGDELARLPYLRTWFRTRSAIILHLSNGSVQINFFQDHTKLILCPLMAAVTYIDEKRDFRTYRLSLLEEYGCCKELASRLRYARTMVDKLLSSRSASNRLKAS
Protocol: (§1) PLK1 (5-20 mU diluted in 50 mM Tris pH 7.5, 0.1 mM EGTA, 0.1% b-mercaptoethanol, 1 mg/ml BSA, 100 μM Vanadate) is assayed against a substrate peptide ([…]) in a final volume of 25.5 μl containing 50 mM Tris pH 7.5, 0.05% b-mercaptoethanol, 10 μM Vanadate, 300 μM substrate peptide, 10 mM magnesium acetate and 0.005 mM [33P-g-ATP] (50-1000 cpm/pmole) and incubated for 30 min at room temperature. Assays are stopped by addition of 5 μl of 0.5 M (3%) orthophosphoric acid and then harvested onto P81 Unifilter plates with a wash buffer of 50 mM orthophosphoric acid.
as §1, with “100 µM” for “100 μM”, “[…]” for “10 μM”

[3] = molecular target: MNK1 (Homo sapiens (Human), UniProt Q9BUB5); test: MNK1 kinase selectivity assay
Sequence of MNK1 (Q9BUB5 whole entry, species assumed): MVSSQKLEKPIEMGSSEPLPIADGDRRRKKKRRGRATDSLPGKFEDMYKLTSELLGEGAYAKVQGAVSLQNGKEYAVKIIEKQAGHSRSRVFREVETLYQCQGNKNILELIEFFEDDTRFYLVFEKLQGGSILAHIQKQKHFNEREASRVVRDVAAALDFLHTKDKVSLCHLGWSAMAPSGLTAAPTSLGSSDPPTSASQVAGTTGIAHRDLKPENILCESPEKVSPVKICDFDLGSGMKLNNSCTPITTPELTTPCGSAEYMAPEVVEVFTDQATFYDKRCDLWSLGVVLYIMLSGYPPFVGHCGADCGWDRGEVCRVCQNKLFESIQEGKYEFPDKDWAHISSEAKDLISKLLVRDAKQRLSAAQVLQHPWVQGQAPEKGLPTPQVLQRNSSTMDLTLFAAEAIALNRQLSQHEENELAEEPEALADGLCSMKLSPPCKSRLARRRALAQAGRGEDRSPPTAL
Protocol: 5-20 mU of MNK1 (diluted in 50 mM Tris (pH 7.5), 0.1 mM EGTA, 1 mg/ml BSA, 0.1%, b-Mercaptoethanol) is assayed against substrate peptide (eIF4E) in a final volume of 25.5p1 containing 50 mM Tris (pH 7.5), 0.1 mM EGTA, 0.1%, b-Mercaptoethanol, 0.5 mg/ml substrate peptide, 10 mM magnesium acetate and 0.05 mM [33P-g-ATP](500-1000 cpm/pmole) and incubated for 30 mins at room temperature. Assays are stopped by addition of 5p1 of 0.5M (3%) orthophosphoric acid. Assays are harvested onto P81 Unifilter plates using a wash buffer of 50 mM orthophosphoric acid.

[4] = molecular target: MSK1 (Homo sapiens (Human), UniProt O75582); test: MSK1 kinase selectivity assay
Sequence of MSK1 (O75582 whole entry, species assumed): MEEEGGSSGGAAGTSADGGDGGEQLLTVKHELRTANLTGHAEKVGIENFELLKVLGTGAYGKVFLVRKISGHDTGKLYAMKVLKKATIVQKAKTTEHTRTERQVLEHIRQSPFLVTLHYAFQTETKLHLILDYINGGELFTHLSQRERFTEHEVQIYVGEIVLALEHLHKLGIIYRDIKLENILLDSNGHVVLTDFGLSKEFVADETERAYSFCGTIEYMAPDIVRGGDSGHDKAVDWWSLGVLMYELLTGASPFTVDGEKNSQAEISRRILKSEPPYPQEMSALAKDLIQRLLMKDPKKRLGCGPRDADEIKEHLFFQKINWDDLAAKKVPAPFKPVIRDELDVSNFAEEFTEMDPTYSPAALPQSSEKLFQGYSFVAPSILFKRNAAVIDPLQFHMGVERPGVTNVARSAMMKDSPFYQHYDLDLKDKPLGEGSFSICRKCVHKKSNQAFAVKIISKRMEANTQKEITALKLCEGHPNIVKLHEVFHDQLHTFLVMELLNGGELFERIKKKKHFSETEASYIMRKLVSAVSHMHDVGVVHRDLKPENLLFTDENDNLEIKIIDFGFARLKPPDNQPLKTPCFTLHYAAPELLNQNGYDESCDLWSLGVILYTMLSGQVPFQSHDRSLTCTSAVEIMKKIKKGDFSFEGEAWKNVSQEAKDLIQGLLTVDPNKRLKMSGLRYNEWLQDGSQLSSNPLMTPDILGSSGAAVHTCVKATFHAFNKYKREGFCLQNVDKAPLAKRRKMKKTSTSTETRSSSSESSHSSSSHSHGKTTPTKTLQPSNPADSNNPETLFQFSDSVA
Protocol: MSK1 (5-20 mU diluted in 20 mM MOPS pH 7.5, 1 mM EDTA, 0.01% Brij35, 0.1% b-mercaptoethanol, 1 mg/ml BSA) is assayed against a modified Crosstide peptide […] in a final volume of 25.5 μl containing 8 mM MOPS pH7.0, 0.2 mM EDTA, 30 μM substrate peptide, 10 mM magnesium acetate and 0.02 mM [33P-g-ATP](50-1000 cpm/pmole) and incubated for 30 min at room temperature Assays are stopped by addition of 5 μl of 0.5 M (3%) orthophosphoric acid and then harvested onto P81 Unifilter plates with a wash buffer of 50 mM orthophosphoric acid.

[5] = molecular target: MEKK1 (Homo sapiens (Human), UniProt Q13233); test: MEKK1 kinase selectivity assay
Sequence of MEKK1 (Q13233 whole entry, species assumed): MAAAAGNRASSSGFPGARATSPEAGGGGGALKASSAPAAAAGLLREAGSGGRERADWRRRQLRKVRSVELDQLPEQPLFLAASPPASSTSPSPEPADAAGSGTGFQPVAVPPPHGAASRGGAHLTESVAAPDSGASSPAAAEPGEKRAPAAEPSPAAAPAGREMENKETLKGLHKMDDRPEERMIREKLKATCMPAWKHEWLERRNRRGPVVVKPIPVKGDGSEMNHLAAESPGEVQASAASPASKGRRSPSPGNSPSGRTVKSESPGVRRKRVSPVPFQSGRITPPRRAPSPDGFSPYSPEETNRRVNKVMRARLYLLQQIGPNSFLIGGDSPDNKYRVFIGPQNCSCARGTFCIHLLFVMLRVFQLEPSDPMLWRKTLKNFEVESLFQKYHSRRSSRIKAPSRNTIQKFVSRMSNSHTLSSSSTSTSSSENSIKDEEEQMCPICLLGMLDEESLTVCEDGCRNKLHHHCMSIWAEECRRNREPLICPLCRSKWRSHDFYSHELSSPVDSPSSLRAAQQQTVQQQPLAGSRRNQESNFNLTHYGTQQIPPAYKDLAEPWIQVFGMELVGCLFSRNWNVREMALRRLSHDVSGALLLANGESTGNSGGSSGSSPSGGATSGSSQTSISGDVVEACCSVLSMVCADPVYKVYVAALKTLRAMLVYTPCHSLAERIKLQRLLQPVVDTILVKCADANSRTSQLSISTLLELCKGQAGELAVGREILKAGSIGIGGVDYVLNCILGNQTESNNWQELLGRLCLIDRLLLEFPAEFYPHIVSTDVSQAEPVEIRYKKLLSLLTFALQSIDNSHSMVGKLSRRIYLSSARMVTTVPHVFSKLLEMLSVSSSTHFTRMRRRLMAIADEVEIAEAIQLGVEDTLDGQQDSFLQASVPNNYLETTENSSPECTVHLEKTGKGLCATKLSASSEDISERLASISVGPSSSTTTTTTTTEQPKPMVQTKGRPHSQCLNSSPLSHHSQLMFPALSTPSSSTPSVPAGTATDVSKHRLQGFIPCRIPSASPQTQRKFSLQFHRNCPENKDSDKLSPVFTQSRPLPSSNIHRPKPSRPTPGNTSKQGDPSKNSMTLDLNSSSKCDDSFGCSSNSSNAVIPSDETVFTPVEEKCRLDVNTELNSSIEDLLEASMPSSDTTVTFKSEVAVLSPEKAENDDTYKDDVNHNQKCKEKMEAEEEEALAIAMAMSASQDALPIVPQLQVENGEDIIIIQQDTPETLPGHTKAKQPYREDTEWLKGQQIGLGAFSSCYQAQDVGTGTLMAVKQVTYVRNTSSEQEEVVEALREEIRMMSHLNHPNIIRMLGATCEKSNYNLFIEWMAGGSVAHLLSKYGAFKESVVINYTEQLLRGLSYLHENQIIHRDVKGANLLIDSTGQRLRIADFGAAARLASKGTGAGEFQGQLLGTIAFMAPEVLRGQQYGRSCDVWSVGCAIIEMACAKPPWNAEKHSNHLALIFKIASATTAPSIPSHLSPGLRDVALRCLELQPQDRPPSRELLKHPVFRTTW
Protocol: MEKK1 (5-20 mU diluted in 50 mM Tris pH 7.5, 0.1 mM EGTA, 0.1% 0-mercaptoethanol, 1 mg/ml BSA) is assayed against MBP in a final volume of 25.5 μl containing 50 mM Tris pH 7.5, 0.1 mM EGTA, 0.33 mg/ml MBP, 10 mM magnesium acetate and 0.02 mM [33P-γ-ATP] (50-1000 cpm/pmole) and incubated for 30 min at room temperature. Assays are stopped by addition of 5 μl of 0.5 M (3%) orthophosphoric acid and then harvested onto P81 Unifilter plates with a wash buffer of 50 mM orthophosphoric acid.

[6] = molecular target: CAMK1 (Homo sapiens (Human), UniProt Q14012); test: CAMK1 kinase selectivity assay
Protocol: 5-20 mU of CAMK-1 (diluted in 50 mM Tris (pH 7.5), 0.1 mM EGTA, 1 mg/ml BSA, 0.1%, b-Mercaptoethanol) is assayed against substrate peptide ([…]) in a final volume of 25.5 μl containing 50 mM Tris (pH 7.5), 0.1 mM EGTA, 0.5 mM CaCl2, 0.3 μM calmodulin, 0.1%, b-Mercaptoethanol, 300 μM substrate peptide, 10 mM magnesium acetate and 0.05 mM [33P-g-ATP](500-1000 cpm/pmole) and incubated for 30 mins at room temperature. Assays are stopped by addition of […] of 0.5M (3%) orthophosphoric acid. Assays are harvested onto P81 Unifilter plates using a wash buffer of 50 mM orthophosphoric acid.

[7] = molecular target: JNK2 (Homo sapiens (Human), UniProt P45984); test: JNK2 kinase selectivity assay
Sequence of JNK2 (P45984 whole entry, species assumed): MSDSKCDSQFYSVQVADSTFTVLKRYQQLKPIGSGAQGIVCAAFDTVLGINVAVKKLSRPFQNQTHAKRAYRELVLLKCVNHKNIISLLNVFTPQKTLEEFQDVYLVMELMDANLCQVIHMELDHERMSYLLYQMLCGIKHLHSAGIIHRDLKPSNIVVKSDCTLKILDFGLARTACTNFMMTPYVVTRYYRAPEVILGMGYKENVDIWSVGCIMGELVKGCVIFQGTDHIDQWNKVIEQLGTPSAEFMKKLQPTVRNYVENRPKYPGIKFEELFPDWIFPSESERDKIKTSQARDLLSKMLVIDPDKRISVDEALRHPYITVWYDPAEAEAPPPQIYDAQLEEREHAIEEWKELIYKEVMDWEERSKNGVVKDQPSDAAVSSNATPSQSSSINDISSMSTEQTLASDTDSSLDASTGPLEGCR
Protocol: JNK2 1(5-20 mU diluted in 50 mM Tris (pH 7.5), 0.1 mM EGTA, 1 mg/ml BSA, 0.1% b-mercaptoethanol) is assayed against ATF2 (activating transcription factor in a final volume of 25.5 μl in 50 mM Tris pH 7.5, 0.1 mM EGTA, 0.1% b-Mercaptoethanol, ATF2 (3 μM), 10 mM magnesium acetate and 0.02 mM [33P-g-ATP] (500-1000 cpm/pmole) and incubated for 30 min at room temperature. Assays are stopped by addition of 5 μl of 0.5 M (3%) orthophosphoric acid and then harvested onto P81 Unifilter plates with a wash buffer of 50 mM orthophosphoric acid.

Sequence of IKKb (O14920 whole entry, species assumed): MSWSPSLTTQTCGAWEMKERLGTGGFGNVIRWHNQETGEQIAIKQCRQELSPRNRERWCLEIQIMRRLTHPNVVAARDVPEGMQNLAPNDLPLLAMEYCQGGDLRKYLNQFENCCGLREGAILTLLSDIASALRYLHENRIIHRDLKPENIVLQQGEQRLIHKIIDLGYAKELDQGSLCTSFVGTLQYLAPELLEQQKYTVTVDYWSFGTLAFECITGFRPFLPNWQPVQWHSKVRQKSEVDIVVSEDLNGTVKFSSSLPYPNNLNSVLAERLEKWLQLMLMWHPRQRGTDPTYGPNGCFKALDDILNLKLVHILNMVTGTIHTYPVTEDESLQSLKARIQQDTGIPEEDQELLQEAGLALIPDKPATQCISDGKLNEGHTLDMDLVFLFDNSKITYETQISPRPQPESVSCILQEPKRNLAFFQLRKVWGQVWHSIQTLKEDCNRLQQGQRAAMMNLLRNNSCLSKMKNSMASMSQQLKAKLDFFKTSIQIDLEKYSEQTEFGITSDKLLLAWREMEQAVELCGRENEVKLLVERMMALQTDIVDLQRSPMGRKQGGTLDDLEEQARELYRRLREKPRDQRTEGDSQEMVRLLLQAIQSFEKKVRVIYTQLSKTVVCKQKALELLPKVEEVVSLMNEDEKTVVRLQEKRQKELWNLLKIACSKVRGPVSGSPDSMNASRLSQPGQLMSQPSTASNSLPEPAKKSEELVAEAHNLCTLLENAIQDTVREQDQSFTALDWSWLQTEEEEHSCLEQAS

c1cc2[nH]nc3c2c(n1)N(C1CCC1)CCC3 [Example 22, 6-cyclobutyl-6,7,8,9-tetrahydro-2H-1,2,5,6-tetraazabenzo[cd]azulene]
percentage inhibition of IKKb [1]: 2 percentage | percentage inhibition of PLK1 [2]: 4 percentage | percentage inhibition of MNK1 [3]: 0 percentage | percentage inhibition of MSK1 [4]: 2 percentage | percentage inhibition of MEKK1 [5]: 0 percentage | percentage inhibition of CAMK1 [6]: 0 percentage | percentage inhibition of JNK2 [7]: 1 percentage

c1cc2[nH]nc3c2c(n1)N(C1CCCC1)CCC3 [Example 23, 6-cyclopentyl-6,7,8,9-tetrahydro-2H-1,2,5,6-tetraazabenzo[cd]azulene]
percentage inhibition of IKKb [1]: 0 percentage | percentage inhibition of PLK1 [2]: 3 percentage | percentage inhibition of MNK1 [3]: 0 percentage | percentage inhibition of MSK1 [4]: 2 percentage | percentage inhibition of MEKK1 [5]: 0 percentage | percentage inhibition of CAMK1 [6]: 0 percentage | percentage inhibition of JNK2 [7]: 0 percentage

c1cc2[nH]nc3c2c(n1)N(C1CCOCC1)CCC3 [Example 29, 6-(tetrahydro-2H-pyran-4-yl)-6,7,8,9-tetrahydro-2H-1,2,5,6-tetraazabenzo[cd]azulene]
percentage inhibition of IKKb [1]: 0 percentage | percentage inhibition of PLK1 [2]: 0 percentage | percentage inhibition of MNK1 [3]: 0 percentage | percentage inhibition of MSK1 [4]: 7 percentage | percentage inhibition of MEKK1 [5]: 0 percentage | percentage inhibition of CAMK1 [6]: 0 percentage | percentage inhibition of JNK2 [7]: 0 percentage

CN1CCC(N2Cc3ccccc3-c3n[nH]c4ccnc2c34)CC1 [Example 55]
percentage inhibition of IKKb [1]: 6 percentage | percentage inhibition of PLK1 [2]: 28 percentage | percentage inhibition of MNK1 [3]: 50 percentage | percentage inhibition of MSK1 [4]: 34 percentage | percentage inhibition of MEKK1 [5]: 5 percentage | percentage inhibition of CAMK1 [6]: 25 percentage | percentage inhibition of JNK2 [7]: 41 percentage

CC(C)n1ncc2c1CN(C1CCN(C)CC1)c1nccc3[nH]nc-2c13 [Example 68]
percentage inhibition of IKKb [1]: 4 percentage | percentage inhibition of PLK1 [2]: 21 percentage | percentage inhibition of MNK1 [3]: 1 percentage | percentage inhibition of MSK1 [4]: 30 percentage | percentage inhibition of MEKK1 [5]: 0 percentage | percentage inhibition of CAMK1 [6]: 45 percentage | percentage inhibition of JNK2 [7]: 37 percentage
